Results as given in patent publication US20090068286A1, “METHOD OF TREATING CANCER BY ADMINISTRATION OF 5-SUBSTITUTED NUCLEOSIDES” (RESprotect, GmbH, priority 2007, published 2009).

Tests used:
[1] = Plasma concentrations of BVDU, BVU and GEM in patients of the dose finding study (HPLC); format: in vivo, human
Experimental: Dose finding study: 22 Patients with advanced pancreatic adenocarcinoma were eligible for treatment in this single arm study. The mean age was 60 years and 73% of patients were males. One patient without progressive disease was excluded from the study for withdrawal of consent after the first cycle. Of the 21 patients left, 15 were in stage IV and 6 in stage III. BVDU was administered in a combination with GEM. On day 1, on day 8 and on day 15 of each 28-day cycle, BVDU was given together with GEM. On days 2-4, on days 8-11, and on days 15-18 of a 28-day cycle, BVDU was given alone in the recovery phase.
The starting dose of BVDU was 4×125 mg/day (total dose of 6,000 mg per treatment cycle) together with a fixed dose of GEM (1,000 mg/M^2). Subsequent total doses of BVDU per cycle were 7,500 mg, 9,000 mg, 10,500 mg, and 12,000 mg again in four patients per cohort. Dosage levels were administered as follows: First dose level: The starting dose of BVDU was 4×125 mg daily given at approximately 08:00 a.m. (1×125 mg BVDU), 12:00 a.m. (1×125 mg BVDU), 04:00 p.m. (1×125 mg BVDU), and 08:00 p.m. (1×125 mg BVDU). These doses were administered on days 1 to 4, days 8 to 11 and days 15 to 18; Second dose level: 1×250 mg+3×125 mg daily; Third dose level. 2×250 mg+2×125 mg daily; Forth dose level: 3×250 mg+1×125 mg daily; and, Fifth dose level: 4×250 mg daily.
Approximately 1 hour after the 08:00 a.m. BVDU-administration on day 1, day 8 and day 15 of a cycle, the GEM infusion started and GEM was infused for 30 minutes.
Analysis of the concentrations of GEM and BVDU (BVDU) as well as analysis of the concentrations of BVU ((E)-5-(2-bromovinyl)uracil, degradation product of BVDU) in plasma samples: 0.5 ml of plasma spiked with about 0.5 μg of 4-Propyl-2-thiouracil (PTU) as internal standard was extracted with 2.5 ml of methanol-acetonitrile (v/v, 1:9) by vigorous mixing for about 1 min. After centrifugation the supernatant was transferred to a beaker and evaporated to dryness at 50° C. under a gentle stream of nitrogen. The residue was dissolved in 1 ml of the solution used as mobile phase by 10 min treatment in an ultrasonic bath. After centrifugation the clear supernatant was used for HPLC-analysis. The concentrations of GEM and BVDU were calculated using a calibration curve with the respective standard substances. The concentrations of BVU were calculated using the calibration curve of BVDU and the determined response factor. Limits of detection: BVDU 20 ng/ml plasma; GEM 30 ng/ml plasma. Limits of quantification: BVDU 60 ng/ml plasma; GEM 100 ng/ml plasma.
Pharmacokinetic Results BVDU: All measurements were performed within 9 hours. Therefore, only the first three intakes of BVDU-tablets were relevant in this context, and as consequence, in dose groups four and five the intake of tablets was identical. When the dose was doubled from 125 mg to 250 mg, the mean maximum BVDU concentration in plasma increased fivefold from 290 (±152) ng/ml to 1549 (±1058) ng/ml (FIG. 10).

[2] = test system: dimethybenzanthracene (DMBA) induced tumors; assay: Growth of DMBA-induced tumors in SD rats under DOX ± BVDU; format: in vivo, rat; conditions: DOX 1 mg/kg
Experimental: (§1) The reduction in toxic side effects of doxorubicin (DOX) was able to be shown in the test with rats (see Table 3). SD rats were treated with dimethybenzanthracene (DMBA). […] During the treatment and one day after each treatment, i.e. in the recovery phase, the animals obtained respectively 15 mg/kg BVDU. The recovery phase in vivo was 6× one day.

[3] = test system: AH13r tumor cells; assay: Hoechst 33258/propidium iodide (Hopi) double coloration for apoptosis; format: cell-based, rat; conditions: cytostatic
Text: The indication that the reduction in cell number is based on apoptosis, was detected by means of Hoechst 33258/propidium iodide (Hopi) double coloration.

[4] = Animal weight of DOX ± BVDU treated rats (toxic side effects); format: in vivo, rat
Experimental: DT-D inactivates ROS and thus protects cells from non-specific ROS and electrophilic attacks. […] DOX treatment alone leads to weight losses because of the toxic side effects. It is certain that only the side effects (possibly the cardiotoxicity characteristic of DOX) are reduced by BVDU but not the toxic effects on the tumor.
as §1

[5] = test system: pancreatic cancer; conditions: pancreatic cancer patients; cited from earlier work
[6] = test system: advanced pancreatic cancer; conditions: pivotal study, Glimelius et al. 1996; cited from earlier work
[7] = DMBA-induced tumors, BVDU 15 mg/kg, average of 5-8 rats
[8] = SD rats, DOX 1 mg/kg, BVDU 15 mg/kg, average of 5-8 rats

## O=c1[nH]cc(/C=C/Br)c(=O)[nH]1 [BVU, (E)-5-(2-bromovinyl)uracil]
[1]; lower end of the BVDU dose range ("from")
  Mean maximum BVU concentration: 1525 (±1012) ng/ml
[1]; upper end of the BVDU dose range ("to")
  Mean maximum BVU concentration: 4637 (±1353) ng/ml

## COc1cccc2c1C(=O)c1c(O)c3c(c(O)c1C2=O)C[C@@](O)(C(=O)CO)C[C@@H]3O[C@H]1C[C@H](N)[C@H](O)[C@H](C)O1 [DOX, doxorubicin]
[2]; [7]
  Relative tumor size Day 1: 1
  Relative tumor size Day 16: 1.5
[2]
  Growth of DMBA-induced tumors: inhibited in their growth
[3]
  Apoptosis (HOPI double coloration): initiate apoptosis
[4]; [8]
  Relative animal weight Day 1: 0
  Relative animal weight Day 16: −7%
[4]; rat, in vivo
  Animal weight change as index of toxic side effects: weight losses

## Nc1ccn([C@@H]2O[C@H](CO)[C@@H](O)C2(F)F)c(=O)n1 [GEM, gemcitabine]
[1]; BVDU 125 vs 250 mg, large variability between individual patients
  GEM maximum values with increase of the BVDU dose: appear to rise
[1]; at the second BVDU intake, 4 hours later
  GEM detectability in plasma: not detectable any more
[5]
  Diarrhea: 2%
  One-year survival: 17%
  Overall survival: 5.9 months
  Skin rash: 1%
  Time to progression: 3.55 months
[6]
  Median survival: less than 6 months

## CO[C@@]12[C@H](COC(N)=O)C3=C(C(=O)C(C)=C(N)C3=O)N1C[C@@H]1N[C@@H]12 [MMC, mitomycin C]
[3]
  Apoptosis (HOPI double coloration): initiate apoptosis

## O=C1c2c(O)ccc(O)c2C(=O)c2c(NCCNCCO)ccc(NCCNCCO)c21 [MXA, mitoxantrone]
[3]
  Apoptosis (HOPI double coloration): initiate apoptosis
